From patent US20220387369A1, “Prooxidative chain-transfer agents for use in the treatment of malignant tumour or infectious diseases” (Universitätsmedizin der Johannes Gutenberg-Universität Mainz, priority 2019, published 2022) come the findings set out here.

The structures appear in SMILES notation.

Data set [1] deals with Primary human fibroblasts. Put plainly: 8-Isoprostane release from diploid human fibroblasts. Type of data set: cell-based. Conditions: 100 μM, medium with 10% fetal calf serum, time course, FIG. 3C (a). As for the experimental part: (§1) (FIG. 3A) Normal human diploid fibroblasts were cultivated under standard conditions stimulating cell division, i.e. with 10% serum in the medium. Specifically, the cells were grown in high-glucose DMEM (Dulbecco's Modified Eagle's Medium) supplemented with 10% heat-inactivated FCS (fetal calf serum), 1× non-essential amino acid (NEAA) supplement, 1 mM pyruvate, 100 mg/L streptomycin and 100 U/mL penicillin. For cultivation, the cells were maintained at 37° C. in a humidified atmosphere containing 5% CO2. The cells were generally passaged on reaching approximately 90% confluence and were seeded, after counting of the PDLs (population doublings), in new dishes at a density of 10^6 cells per dish in 100 mm dishes, or at a density of 10^4 cells per well in 96-well plates. Cells were used for experiments at PDL 25-30. All cell culture reagents were from Invitrogen, Carlsbad, Calif., USA.
(FIG. 3C) 8-Isoprostanes. Cells cultivated in 96-well plates for 24 h were administered with 100 μM n-dodecyl thiol (12-SH) for the indicated time before removing the cell culture supernatant for 8-isoprostane analysis. 8-Isoprostane analysis was achieved by a commercial enzyme immunoassay (Cayman Chemicals, Ann Arbor, Mich., USA), which was conducted as detailed in the manufacturers instructions.

In data set [2] the test system is C. elegans. Put plainly: Toxicity (survival) in nematodes in vivo. Also on record: species or system Caenorhabditis elegans. As to conditions: 0.5 mM in minimum diet with varying amounts of coliform bacteria, oral, FIG. 4 (a). On the procedure:
Caenorhabditis elegans N2 Bristol strain animals were expanded and cultivated at 20° C. on nematode growth medium (NGM) plates in the presence of Escherichia coli strain HB101 as food source following standard protocols (Mocko et al., Neurobiol Dis 40:120-129, 2010). For the toxicity experiments, synchronized adult worms aged 2 days were maintained in liquid culture medium (S-Basal medium supplemented with 5 mg/L cholesterol, 100 mg/L streptomycin, 100 mg/L fluorodeoxyuridine (FUDR)) to which varying amounts of Escherichia coli were added (measured as optical density (OD) at 600 nm wavelength) as described (Mair et al., PLoS One 4:e4535, 2009). Worms distributed in 48-well plates were administered with 500 μM n-dodecyl thiol (12-SH) dissolved in ethanol (final concentration: 1%) and analyzed, after the indicated time, for survival by visual inspection and mechanical stimulation (nose-touch assay) as detailed (Mocko et al., Neurobiol Dis 40:120-129, 2010).

In the next data set the test system is HT22 cells. In words: Cytotoxic activity in cultivated HT22 cells (MTT), normoxic and hypoxic. As to conditions: 1 day or 3 days, 20% O2 vs 1% O2, FIG. 2B. Type of data set: cell-based, mouse. As for the experimental part:
(FIG. 2A) HT22 are a widely used, immortalized neuronal cell line that has been generated by transforming mouse neuronal tissue with the oncogenic SV40 T-antigen (Morimoto and Koshland, Neuron 5:875-880, 1990). HT22 cells were cultivated in high-glucose DMEM (Dulbecco's Modified Eagle's Medium) supplemented with 10% heat-inactivated FCS (fetal calf serum), 1 mM pyruvate, 100 mg/L streptomycin and 100 U/mL penicillin. For routine culture, cells were grown in 100 mm dishes at 37° C. in a humidified atmosphere containing 5% CO2. They were passaged three times per week on reaching approximately 90% confluence and splitted 1:10. All cell culture reagents were from Invitrogen, Carlsbad, Calif., USA.
For cell survival experiments, HT22 cells were seeded into 96-well plates at a density of ˜5000 cells per well in 0.1 mL medium. After 24 h cultivation, the cells were administered with the indicated concentrations of the tested compounds (n-octyl thiol (8-SH) or n-dodecyl thiol (12-SH)) dissolved in ethanol (final concentration: 1%). After 1 day or 3 days of incubation as indicated, cell survival was analyzed by colorimetric MTT reduction tests (MTT is 3-(4,5-dimethylthiazol-2-yl-)-2,5 diphenyltetrazolium bromide) which were performed exactly as described (Hajieva et al., J Neurochem 110:118-132, 2009). […]

For data set [3], the system named is C. elegans. Put plainly: 8-Isoprostane in homogenates of treated nematodes. Type of data set: in vivo, Caenorhabditis elegans. Conditions: 0.1 mM or 0.5 mM, FIG. 4 (b). As for the experimental part:
8-Isoprostanes. Synchronized, 4-day-old adult worms distributed in cell culture flasks were administered with the indicated concentration of n-dodecyl thiol (12-SH) dissolved in ethanol (final concentration: 1%) and cultivated for 6 h or 48 has indicated. The worms were collected by centrifugation at 1200 g, washed twice with S-Basal medium, and once with DMEM medium containing 100 μM butylated hydroxytoluene (BHT). The worms were then homogenized in DMEM/BHT by sonication (3×20 s at 30 kHz on ice). Equal amounts of protein of the resulting homogenate (as per bicinchoninic acid assay from Pierce, Rockford, Ill., USA) were probed for the presence of 8-isoprostane by a commercial enzyme immunoassay (Cayman Chemicals, Ann Arbor, Mich., USA) following the manufacturer's instructions.

The test system of data set [4] is Primary human fibroblasts. In words: Protein polyubiquitination in diploid human fibroblasts (Western blot). The format is cell-based. Conditions: 500 μM, medium with 10% fetal calf serum, time course, FIG. 3C (b). On the procedure: as §1
Protein polyubiquitination. Cells cultivated in 100 mm dishes for 24 h were administered with 500 μM n-dodecyl thiol (12-SH) for the indicated time before harvesting of the cells in lysis buffer (50 mM Tris-HCl, pH 7.4, 10% sucrose, 1 mM EDTA, 1 mM EGTA, 1 mM Na3VO4, 1 mM NaF, 1× protease inhibitor cocktail from Sigma-Aldrich, St. Louis, Mo., USA) followed by brief sonication and denaturation at 95° C. for 2 min. […] Densitometric quantification was performed using automated image analysis software.
A general note: Immunoblotting shows a protein as a band on a membrane.

Data set [5] has as its system Native lipid membranes from rat brain. In words: Lipid peroxidation (malondialdehyde/TBARS) in native rat brain membranes. The format is biochemical. On the procedure:
Native biological membranes from adult rat brain were prepared by differential centrifugation as described (Moosmann and Behl, Proc Nati Acad Sci USA 96:8867-8872, 1999). Samples containing 0.5 mg/ml total protein (as per bicinchoninic acid assay from Pierce, Rockford, Ill., USA) were solubilized by brief sonication in PBS (phosphate-buffered saline) and administered with the indicated concentrations of n-dodecyl thiol (12-SH; from Sigma-Aldrich, St. Louis, Mo., USA) dissolved in ethanol (final concentration: 0.1%). Subsequently, 10 μM Fe^2+/200 μM ascorbate were added as radical-initiating mix; controls received vehicle (water). After the indicated time, the reaction was stopped by adding 2.5 volumes of 5% trichloroacetic acid in 1 M acetic acid, followed by centrifugation (10,000 g for 10 min). Subsequently, thiobarbituric acid-reactive substances (TBARS) as marker of lipid peroxidation were quantified fluorimetrically as detailed before (Hajieva et al., J Neurochem 110:118-132, 2009).

Another data set has as its system Drosophila melanogaster. Put plainly: Ultrastructural effects in fruit flies in vivo (electron microscopy). Conditions: 1 mM in the feed, electron micrographs. On the procedure:
Male Drosophila melanogaster (strain Oregon-R) were maintained at 25° C. in plastic vials covered with air-permeable lids and received standard food (50 g/L refined household sugar, 50 g/L baker's yeast, and 20 g/L agar powder). The medium was boiled under stirring, adding the following supplements at approximately 70° C.: 3 g/L methylparabene (dissolved in ethanol, final concentration: 0.15%), 3 mL/L propionic acid and the appropriate amount of n-dodecyl thiol (12-SH) dissolved in ethanol (final concentration: 0.1%). Synchronized male flies were transferred into new vials and scored for survival every other day. Treatment started on day 2 of adulthood. Electron microscopy. Flies harvested after 50 days of treatment were cryofixed by plunge freezing, cut into head, thorax and abdomen before chemical fixation for 90 min with 3% glutaraldehyde and 3% formaldehyde in PBS. The tissues were washed, fixed with 2% OsO4, washed again, dehydrated with rising concentrations of ethanol, transitionally stabilized with propylene oxide and embedded into epoxy resin essentially as described (Bozzola and Russel, Electron Microscopy: Jones and Bartlett Publishers, Inc., Sudbury, M A, 1999). The polymerized blocks were mounted, trimmed, and sectioned in an ultramicrotome before transfer onto electron microscopy grids. Images were acquired under standard conditions in a Tecnai Transmission Electron Microscope (FEI Company, Hillsboro, Oreg., USA).

Regarding `CCCCCCCCCCCCS` [n-dodecylthiol], the “concentration of released lipid peroxidation marker 8-isoprostane” value in data set [1] is “increased significantly within a few hours”. In the data set with C. elegans [2], the “worms killed / toxicity in vivo” value was “led to death after a few days”. Moreover, the “cytotoxic effectiveness under hypoxic versus normal oxygen conditions” value in the data set on HT22 cells was “not compromised by hypoxic conditions”. The “concentration of lipid peroxidation marker 8-isoprostane in worm homogenates” value in the data set with C. elegans [3] is given as “increased to a constant maximum after only 6 h”. In addition, the “amount of polyubiquitinated proteins in the cell (marker of protein damage)” value in data set [4] is recorded as “increased significantly within a few hours”. In data set [5] (absence of any radical initiation ("dead membranes"), FIG. 1 (a)), the “extent of lipid peroxidation (as malondialdehyde)” value is “absence of any effect”. For the same compound, the “extent of lipid peroxidation (as malondialdehyde)” value in data set [5] (low level of free radical initiator (iron/ascorbate) added, FIG. 1 (b)) is on record as “massively amplified”. In addition, in the data set on Drosophila melanogaster (FIG. 5A), the myofibrillar structure result was “intact” and the “ultrastructural effect on muscle mitochondria” value is “intramitochondrial, spiral multilamellar lesions”. Also, the “ultrastructural lesions in the nervous system (a, b) and photoreceptor cells (c)” value with Drosophila melanogaster (FIG. 5B) is on record as “spiral multilamellar lesions of mitochondrial origin”. The “other damage phenotype, nervous system (b)” value in the data set with Drosophila melanogaster (FIG. 5B (b)) is “vacuolization and electron-dense aggregation”. Also, the “other damage phenotype, photoreceptor cells (c)” value with Drosophila melanogaster (FIG. 5B (c)) is given as “bright lipofuscin accumulation”.
